Reference: publication PMC7269146, “Jingzhaotoxin-X, a gating modifier of Kv4.2 and Kv4.3 potassium channels purified from the venom of the Chinese tarantula Chilobrachys jingzhao” (The Journal of Venomous Animals and Toxins Including …, 2020)
Where a SMILES comes first, the peptide text is derived from it. Bridges are numbered along the chain shown (N, C = ends).

How the values were obtained:
Kv4.3 = biological target: T1, Kv4.3 (Rattus norvegicus, UniProt Q62897); assay: kinetic constants of JZTX-X at Kv4.3 channel (wash-in / wash-out); format: cell-based; conditions: test conc. 0.5 μM, n = 8
T1 construct: expressed in transfected cells; host or cells: HEK293t
T1 sequence (Q62897 1-655): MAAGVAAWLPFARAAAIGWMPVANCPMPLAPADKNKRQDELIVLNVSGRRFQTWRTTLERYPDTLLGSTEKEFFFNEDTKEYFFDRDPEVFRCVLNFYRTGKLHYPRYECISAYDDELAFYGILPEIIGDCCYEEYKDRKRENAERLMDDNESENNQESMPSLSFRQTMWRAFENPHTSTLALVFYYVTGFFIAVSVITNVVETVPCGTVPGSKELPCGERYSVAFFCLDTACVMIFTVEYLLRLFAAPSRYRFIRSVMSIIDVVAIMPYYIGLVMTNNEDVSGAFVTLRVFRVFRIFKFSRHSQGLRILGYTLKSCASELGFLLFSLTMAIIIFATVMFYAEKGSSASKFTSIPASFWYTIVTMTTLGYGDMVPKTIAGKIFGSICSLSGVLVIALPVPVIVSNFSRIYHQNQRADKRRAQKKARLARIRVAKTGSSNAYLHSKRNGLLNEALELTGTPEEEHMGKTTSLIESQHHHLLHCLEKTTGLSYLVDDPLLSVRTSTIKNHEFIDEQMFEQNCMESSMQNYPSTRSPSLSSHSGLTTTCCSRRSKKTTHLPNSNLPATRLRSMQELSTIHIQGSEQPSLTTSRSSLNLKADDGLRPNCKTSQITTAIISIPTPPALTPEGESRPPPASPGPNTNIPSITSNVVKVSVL
Description: Rat cDNA genes encoding Kv4.2 (Accession: NM_031730.2) and Kv4.3 (Accession: AB003587.1) were subcloned to vector pcDNA3.1. In addition, human cDNA genes encoding Nav1.7 (Accession: DQ857292.1) and Nav1.5 (Accession: AB158469.2) were subcloned to vectors pcDNA3.1-mod and pcDNA3.1, separately. Then, Kv4.2, Kv4.3, Nav1.5 and Nav1.7 constructs were transiently transfected into the human embryonic kidney 293t (HEK293t) cells using lipofectamine 2000 (Invitrogen, USA) in accordance with manufacturer protocols. Thereafter, HEK293 cells were inoculated within Dulbecco’s modified Eagle’s medium (DMEM) containing 10% fetal bovine serum (FBS) at 5% CO2 and 37°C. The Kv4.3 channel and the Kv4.2 counterpart were then transfected in the absence of β subunit. Subsequently, cells were incubated with a DNA-lipofectamine mixture (one reporter plasmid for green fluorescence protein and channel constructs) for 4-6 h, and were washed with the fresh medium.
An EPC-10 patch-clamp amplifier (HEKA, Germany) was employed to record the potassium currents at the configuration of whole-cell patch-clamp under an ambient temperature of 22-25°C. The resistance was 2.0-3.0 MΩ when the recording pipette contained a full volume of internal solution (supplemented with 140 mM KCl, 10 mM HEPES, 2.5 mM MgCl2, 5 mM ATP and 11 mM EGTA). KOH was utilized to adjust the pH to 7.2, while sucrose was employed to adjust the osmolarity to 310 mOsm/L. The culture medium was replaced with an external solution containing 150 mM NaCl, 2.5 mM CaCl2, 10 mM HEPES, 2 mM MgCl2, 5 mM KCl, and 10 mM D-glucose. Similarly, sucrose and NaOH were applied to adjust the osmolarity to 330 mOsm/L and pH to 7.4. […] The series resistance was maintained at about 5 MΩ, with 65-70% compensation. Finally, the leakage currents and linear capacitance were subtracted digitally according to the P/4 protocol.
As for kinetic calculations, curves as a function of peak currents vs. time were plotted from the toxin wash-out or wash-in moments. The software Sigmaplot 9.0 (Sigma, USA) was utilized to fit data to the first-order exponential equation. […]

[1] = rotarod performance test in mice; format: in vivo, mouse (male C57BL/6); conditions: 40 nmol/kg, n = 8; for time on accelerating rotarod: 1 h following treatment, cutoff 300 s
Protocol: In the present study, male C57BL/6 mice weighing 20-25 g were utilized. This study was performed following the Guide for the Care and Use of Laboratory Animals released by the United States National Institutes of Health (US NIH). Our study protocol was approved by the Animal Experiments Ethics Committee at Central Southern University (No. 2018-2-6). Each operation was performed under isoflurane-induced anesthesia to reduce pain and minimize animal suffering. Lumbar puncture was also conducted for intrathecal injection, as described previously. Next, the effect of JZTX-X on nociception was evaluated by assessing the behaviors during the mechanical hyperalgesia process. The JZTX-X-induced mechanical hyperalgesia was investigated by two experiments via various administration routes, including intrathecal and intraplantar injections. Then, animals were challenged via intrathecal (10 µL) or intraplantar (20 µL) injection of JZTX-X (40 nmol/kg). The control group was given a physiological solution, which contained 0.9% NaCl, […].
A rotarod accelerator treadmill (Med Associates Inc., St. Albans, VT) was utilized for rotarod performance tests, so as to determine […] motor function as previously described. Motor learning was also carried out by rotarod tests for evaluating the mice’s capacity to stay on the accelerating rotating drum. In JZTX-X- and saline- groups, all animals were acclimated for 30 min within the testing room, and placed for 300 s onto the rotarod that accelerated from 4 to 40 rpm. In addition, the latency time for animals falling from the rod was calculated before and after toxin injection, from the beginning of acceleration to falling onto the drum, and the maximum cutoff time was 300 s.

## CC(C)C[C@@H]1NC(=O)[C@H](CCCCN)NC(=O)[C@H](Cc2ccc(O)cc2)NC(=O)[C@@H]2CSSC[C@@H]3NC(=O)[C@H](Cc4ccc(O)cc4)NC(=O)[C@H](Cc4ccccc4)NC(=O)CNC(=O)[C@H](C)NC(=O)[C@H](CSSC[C@H](NC(=O)[C@@H](N)CC(C)C)C(=O)N[C@@H](CO)C(=O)N[C@@H](CCCNC(=N)N)C(=O)N[C@@H](CCC(=O)O)C(=O)NCC(=O)N[C@@H](CCC(=O)O)C(=O)N[C@@H](Cc4ccccc4)C(=O)N2)NC(=O)[C@H](CSSC[C@@H](C(=O)N[C@@H](Cc2ccc(O)cc2)C(=O)N[C@@H](CCCNC(=N)N)C(=O)N[C@@H](CC(N)=O)C(=O)O)NC(=O)[C@H](Cc2c[nH]cn2)NC(=O)[C@H](CC(C)C)NC(=O)[C@H](C(C)C)NC(=O)[C@H](Cc2ccccc2)NC(=O)[C@H](C)NC(=O)[C@H](CCCCN)NC3=O)NC(=O)[C@H](CCCCN)NC(=O)[C@H](CCCNC(=N)N)NC1=O [JZTX-X, Jingzhaotoxin-X] (H-LCSREGEFCYKLRKCCAGFYCKAFVLHCYRN-OH; disulfide 2-16, 9-21, 15-28; N-terminus assumed)
Kv4.3; inverse of τ of toxin wash-in
  kmod, Kv4.3 channel: 0.073 ± 0.006 s⁻¹
Kv4.3; inverse of τ of toxin wash-out
  koff: 0.005 ± 0.0004 s⁻¹
Kv4.3; method text: Kd = koff / kon
  Ki: 735 ± 50 nM
[1]; intrathecal and intraplantar
  effect on motor coordination: made no difference to the motor coordination in mice
[1]; intraplantar, vehicle 118.8 ± 9.8 s
  time on accelerating rotarod: 113.4 ± 8.3 s
[1]; intrathecal, vehicle 117.9 ± 7.6 s
  time on accelerating rotarod: 117.5 ± 7.8 s
